US9168247B2, “Beta carboline derivatives useful in the treatment of proliferative disorders” (FACULTES UNIVERSITAIRES NOTRE DAME DE LA PAIX, priority 2010, dated 2015)
Read-outs that look alike come from different tables or passages of the source.

Key:
[1] = system: U373 cells; experiment: Cellular imaging (videomicroscopy) of cultured U373 cells: antiproliferative class and global growth ratio; format: cell-based, human; parameters: key to Anti proliferative class / anti-proliferative class-GGR: class I: actually cytostatic for 3 days (<10% of cell death at the 3rd day); class II: cyctostatic but becomes cytotoxic with <10% cell death on the 2nd day, and >20% of cell death on the 3rd day; class III: cytostatic but rapidly becomes cytotoxic with <10% cell death on the 1st day, >20% of cell death on the 2nd day and >50% of cell death on the 3rd day; class IV: cytotoxic (>50% of cell death on the first day); details: for global growth ratio (GGR): GG treated cells/GG control cells, 72 h after drug addition, drug at its IC50 (MTT-test determined); for Anti proliferative class: cellular imaging of cultured U373 cells over three consecutive days
Description: The effects of the di- and tri-substituted beta-carboline derivatives as described herein can also be determined on cell proliferation, migration and morphology by means of a cellular imaging approach (Debeir et al., Cytometry 60:29-40, 2004; Debeir et al., IEEE Trans Med Imaging 24:697-711, 2005) either in, e.g., the human U373-MG glioma cell line, which is apoptosis-resistant but autophagy-sensitive (Lefranc F et al., Neurosurgery 2008) or in, e.g., the human A549 non-small-cell-lung cancer cell line, which is apoptosis-resistant and autophagy-resistant (Mijatovic T et al., Neoplasia 2006, May; 8(5):402-12).
[…] The experiments are conducted in quadruplicates.
The behaviour of the cells, in terms of morphology, growth and death are thus investigated. The effect on the overall growth is measured by counting the number of cells on the first (0 h) and the last image (72 h) of each film. The global growth ratio (GGR) is then deduced by dividing the number of cells on the last image by the number of cells on the first image. The ratio GGRtreated cells/GGRcontrol cells is further calculated thereby providing a value that describes the effect of compounds of the present invention on the overall cell growth.
The methodology is fully described and validated in Debeir et al., 2008, Exp Cell Res 314:2985-2998 and Mathieu et al., 2009, J Cell Mol Med, Feb. 20, 2009.

[2] = system: Hs683 glioma cells; experiment: MTT test, overall cell growth, Hs683; format: cell-based, human
Method: (§1) MTT tests were performed in order to rapidly, i.e., within 5 days, measure the effect of the present compounds on the overall cell growth. The test measured the number of metabolically active living cells that were able to transform the yellow product 3-(4,5-dimethylthiazol-2-yl)-2,5-diphenyl tetrazolium bromide (herein referred as MTT) into the blue product formazan dye by mitochondrial reduction. The amount of formazan obtained at the end of the experiment, measured by means of a spectrophotometer, is directly proportional to the number of living cells. Optical density determination thus enabled a quantitative measurement of the effect of the investigated compounds as compared to the control condition (untreated cells) and/or to other reference compounds.
(§2) Five human cancer cell lines set forth in Table 3 were used in the MTT tests. These cancer cell lines cover two histological cancer types including glioma (Hs683, T98G, U373), and oesophageal (OE21, OE33) cancers. The U373 cell line is apoptosis-resistant but autophagy-sensitive.
(§3) To perform the assay, cells were allowed to grow in 96-well micro-wells with a flat bottom with an amount of 100 μl of cell suspension per well with 5,000 to 8,000 cells/well depending on the cell type used. Each cell line was seeded in its appropriate culture medium.
(§4) The detailed experimental procedure was as follows: after a 24-hour period of incubation at 37° C., the culture medium was replaced by 100 μl of fresh medium in which the tested compound was previously dissolved, at the following molar concentrations: 1×10^−8 M, 5×10^−8 M, 1×10^−7 M, 5×10^−7 M, 1×10^−6 M, 5×10^−6 M, 1×10^−5 M, 5×10^−5 M and 1×10^−4 M. Each experiment was performed in sestuplicate (6 times).
(§5) After 72 hours of incubation at 37° C. with (experimental conditions) or without (control condition) the compound to be tested, the medium was replaced by 100 μl MTT dissolved in RPMI (1640 without phenol red) at a concentration of 0.5 or 1 mg/ml. The micro-wells were subsequently incubated during 3 hours and a half at 37° C. and centrifuged at 1300 rpm during 10 minutes. MTT was removed and formazan crystals formed were dissolved in […]. The micro-wells were shaken for 5 minutes and read on a spectrophotometer at wavelengths of 570 nm (maximal formazan absorbance).
(§6) For each experimental condition, the mean optical density was calculated, allowing the determination of the percentage of remaining living cells in comparison to the control.
(§7) The origin of all the cell lines we used, along with their biological characteristics, and the validation procedures of the MTT colorimetric assay as employed here are fully detailed in Van Quaquebeke et al., 2005, J Med Chem 48:849-856; Ingrassia et al., 2009, J Med Chem 52:1100-1114; Mathieu et al., 2009, J Cell Mol Med, Feb. 20, 2009.

[3] = system: T98G glioma cells; experiment: MTT test, overall cell growth, T98G; format: cell-based, human; details: 72 hours of incubation
Method: as §1, §2, §3, §4, §5, §6, §7

[4] = system: OE21 oesophageal cancer cells; experiment: MTT test, overall cell growth, OE21; format: cell-based, human
Method: as §1, §2, §3, §4, §5, §6, §7

[5] = system: OE33 oesophageal cancer cells; experiment: MTT test, overall cell growth, OE33; format: cell-based, human
Method: as §1, §2, §3, §4, §5, §6, §7

[6] = system: human cancer cell lines (U373, T98G, Hs683, OE21, OE33); experiment: MTT test, mean over the cancer cell lines; format: cell-based
Method: as §1, §2, §3, §4, §5, §6, §7

[7] = system: U373 glioma cells; experiment: MTT test, overall cell growth, U373; format: cell-based, human; details: 72 hours of incubation
Method: as §1, §2, §3, §4, §5, §6, §7

[8] = Homo sapiens, Hs 683, 72 hours of incubation
[9] = Homo sapiens, OE21, 72 hours of incubation
[10] = Homo sapiens, OE33, 72 hours of incubation
[11] = Homo sapiens, mean over the cancer cell lines, MTT test, read-out: IC50 Mean ± SEM
[12] = mean over the cancer cell lines, MTT test, read-out: IC50 Mean ± SEM

Structure (SMILES) | global growth ratio (GGR) [1] | Anti proliferative class [1] | IC50 [2, 8] | IC50 ([3]; Homo sapiens, T98G) | IC50 [4, 9] | IC50 [5, 10] | IC50 [6, 11] | IC50 ([7]; Homo sapiens, U373 MG) | IC50 ([2]; 72 hours of incubation) | IC50 [3] | IC50 ([4]; 72 hours of incubation) | IC50 ([5]; 72 hours of incubation) | IC50 [6, 12] | IC50 [7] | IC50 ([6]; Homo sapiens, Table 4, mean over cell lines, read-out: IC50 μM growth inhibition (MTT test))
Cc1nccc2c1[nH]c1cc(OCc3ccccc3)ccc12 [JR79, 1-methyl-7-benzyloxy-β-carboline] | 0.2 | III | 17 ± 2 µM | 17 ± 3 µM | 21 ± 1 µM | 4.1 ± 0.6 µM | 14 ± 3 µM | 9.3 ± 0.2 µM | – | – | – | – | – | – | –
Cc1c2c(cc[n+]1Cc1ccccc1F)c1ccc(OCc3cccc(F)c3)cc1n2Cc1cccc(F)c1.[Br-] [CV19, 1-methyl-2-(2-fluorobenzyl)-7-(3-fluorobenzyl)oxy-9-(3-fluorobenzyl)-β-carbolin-2-ium bromide] | 0.2 | I (class I: actually cytostatic for 3 days (<10% of cell death at the 3rd day)) | 2.2 ± 0.2 µM | 0.7 ± 0.2 µM | 1.4 ± 0.3 µM | 3 ± 0.2 µM | 1.6 ± 0.4 µM | 0.6 ± 0.2 µM | – | – | – | – | – | – | –
Cc1c2c(cc[n+]1Cc1ccccc1)c1ccc(OCc3cccc(F)c3)cc1n2Cc1cccc(F)c1.[Br-] [CV16, 1-methyl-2-benzyl-7-(3-fluorobenzyl)oxy-9-(3-fluorobenzyl)43-carbolin-2-ium bromide] | 0.4 | I (class I: actually cytostatic for 3 days (<10% of cell death at the 3rd day)) | – | – | – | – | – | – | 2.8 ± 0.4 µM | 0.97 ± 0.02 µM | 0.4 ± 0.1 µM | 2.9 ± 0.1 µM | 1.6 ± 0.5 µM | 0.82 ± 0.08 µM | –
Cc1nccc2c3ccc(OCC4CCCCC4)cc3n(CC3CCCCC3)c12 [CV12, 1-methyl-7-cyclohexylmethyloxy-9-cyclohexylmethyl-β-carboline] | 0.2 | II | 30 ± 2 µM | 32 ± 1 µM | 17 ± 2 µM | 15 ± 3 µM | 25 ± 4 µM | 30.7 ± 0.8 µM | – | – | – | – | – | – | 25 µM
Cc1nccc2c1[nH]c1cc(OCCO)ccc12 [JR226] | 0.3 | I (class I: actually cytostatic for 3 days (<10% of cell death at the 3rd day)) | – | – | – | – | – | – | 41 ± 3 µM | 53 ± 3 µM | 30 ± 4 µM | 63 ± 4 µM | 46 ± 6 µM | 42 ± 2 µM | –
CCCn1c2cc(OCc3ccccc3)ccc2c2cc[n+](Cc3ccccc3F)c(C)c21.[Br-] [CV35, 1-methyl-2-(2-fluorobenzyl)-7-benzyloxy-9-propyl-β-carbolin-2-ium bromide] | 0.4 | I (class I: actually cytostatic for 3 days (<10% of cell death at the 3rd day)) | 0.45 ± 0.02 µM | 1.8 ± 0.3 µM | 0.42 ± 0.02 µM | 0.25 ± 0.02 µM | 0.7 ± 0.3 µM | 0.39 ± 0.01 µM | – | – | – | – | – | – | –
Cc1nccc2c1[nH]c1cc(OC(=O)c3ccccc3)ccc12 [JR140] | 0.2 | III | – | – | – | – | – | – | 53 ± 3 µM | 42 ± 3 µM | 30 ± 4 µM | 31 ± 4 µM | 37 ± 5 µM | 27 ± 2 µM | –
Cc1c2c(cc[n+]1CCC(C)C)c1ccc(OCc3ccccc3)cc1n2Cc1ccccc1 [PL2, 1-methyl-2-(3-methylbutyl)-7-benzyloxy-9-benzyl-β-carbolin-2-ium bromide] | – | – | 0.37 ± 0.03 µM | 1.2 ± 0.2 µM | 0.5 ± 0.09 µM | – | 0.6 ± 0.2 µM | 0.39 ± 0.01 µM | – | – | – | – | – | – | –
Cc1c2c(cc[n+]1CCC(C)C)c1ccc(OCCC(C)C)cc1n2CCC(C)C [PL12] | – | – | – | – | – | – | – | – | 0.26 ± 0.01 µM | 0.41 ± 0.01 µM | 0.48 ± 0.04 µM | – | 0.34 ± 0.06 µM | 0.22 ± 0.03 µM | –
Cc1c2c(cc[n+]1CCO)c1ccc(OCCC(C)C)cc1n2CCC(C)C [PL11] | – | – | – | – | – | – | – | – | 4 ± 0.3 µM | 2.9 ± 0.4 µM | 7.6 ± 0.3 µM | – | 4 ± 1 µM | 2.5 ± 0.3 µM | –
Cc1c2c(cc[n+]1Cc1ccccc1)c1ccc(OCCC(C)C)cc1n2CCC(C)C [PL13] | – | – | – | – | – | – | – | – | 3.1 ± 0.1 µM | 3.5 ± 0.1 µM | 3.7 ± 0.1 µM | – | 3.4 ± 0.1 µM | 3.4 ± 0.1 µM | –
CCC[n+]1ccc2c3ccc(OCc4ccccc4)cc3n(Cc3ccccc3)c2c1C [CV56, 1-methyl-2-propyl-7-benzyloxy-9-benzyl-β-carbolin-2-ium bromide] | – | – | 0.6 ± 0.1 µM | 11 ± 1 µM | 3.4 ± 0.8 µM | – | 5 ± 2 µM | 2.5 ± 0.3 µM | – | – | – | – | – | – | –
Cc1c2c(cc[n+]1CCO)c1ccc(OCc3ccccc3)cc1n2Cc1ccccc1 [PL1] | – | – | – | – | – | – | – | – | 31 ± 3 µM | 61 ± 6 µM | 25 ± 4 µM | – | 32 ± 11 µM | 9 ± 2 µM | –
Cc1c2c(cc[n+]1CCc1ccccc1)c1ccc(OCc3ccccc3)cc1n2Cc1ccccc1 [PL4, 1-methyl-2-phenethyl-7-benzyloxy-9-benzyl-β-carbolin-2-ium bromide] | – | – | 2.31 ± 0.09 µM | 2.4 ± 0.4 µM | 2.4 ± 0.3 µM | – | 2.3 ± 0.1 µM | 2 ± 0.3 µM | – | – | – | – | – | – | –
COc1ccc2c(c1)[nH]c1c(C)nccc12 [harmine, reference compound] | – | I (class I: actually cytostatic for 3 days (<10% of cell death at the 3rd day)) | – | 24 ± 2 µM | 32 ± 2 µM | 18 ± 1 µM | 28 ± 3 µM | 32 ± 2 µM | – | – | – | – | – | – | –
Cc1c2c(cc[n+]1Cc1ccccc1F)c1ccc(OCc3ccc(F)cc3)cc1n2Cc1ccc(F)cc1.[Br-] [CV25] | 0.4 | I (class I: actually cytostatic for 3 days (<10% of cell death at the 3rd day)) | – | – | – | – | – | – | – | – | – | – | – | – | –
CCCCCC[n+]1ccc2c3ccc(OCc4ccccc4)cc3n(Cc3ccccc3)c2c1C [CV53, 1-methyl-2-hexyl-7-benzyloxy-9-benzyl-β-carbolin-2-ium bromide] | – | – | 0.6 ± 0.1 µM | 3.1 ± 0.5 µM | 1.9 ± 0.3 µM | – | 1.5 ± 0.6 µM | 0.66 ± 0.09 µM | – | – | – | – | – | – | –
Cc1c2c(cc[n+]1CC(=O)c1ccccc1)c1ccc(OCc3ccccc3)cc1n2Cc1ccccc1 [CV52] | – | – | – | – | – | – | – | – | 26 ± 3 µM | 19 ± 2 µM | 17 ± 2 µM | – | 21 ± 2 µM | 22 ± 2 µM | –
Cc1c2c(cc[n+]1Cc1ccccc1F)c1ccc(OCc3ccc(F)cc3)cc1n2Cc1ccc(F)cc1.[Br-] [CV25, 1-methyl-2-(2-fluorobenzyl-7-(4-fluorobenzyl)oxy-9-(4-fluorobenzyl)-β-carbolin-2-ium bromide] | – | – | – | – | – | – | – | – | 1.2 ± 0.4 µM | 0.43 ± 0.02 µM | 1.6 ± 0.3 µM | 1.6 ± 0.2 µM | 1.1 ± 0.3 µM | 0.46 ± 0.08 µM | –
